From patent US20120129872A1, “FUSED HETEROARYL INHIBITORS OF PRO-MATRIX METALLOPROTEINASE ACTIVATION” (priority 2010, published 2012)

Columns and labels:
SCW-induced arthritis = assay: Efficacy in rats with SCW-induced arthritis (ankle thickness, clinical scores); format: in vivo, rat; details: 5, 20, 50 mg/kg BID
Description: A polyarthritis can be induced in female Lewis rats following i.p. administration of streptococcal cell wall (SCW) […] (PG-PS) (J Exp Med 1977; 146:1585-1602). The model has an acute phase (days 3-7) that is complement and neutrophil-dependent and that resolves. A chronic erosive phase begins at about day ten and is dependent on the development of specific T cell immunity to the PG-GS, which resists digestion and remains present in synovial macrophages for months. Like rheumatoid arthritis, SCW-induced arthritis is reduced by TNF inhibitors, and the dependence of SCW-induced arthritis on macrophages (Rheumatology; 2001; 40:978-987) and the strong association of rheumatoid arthritis severity with synovial-tissue macrophage counts (Ann Rheum Dis; 2005; 64:834-838) makes SCW-arthritis an attractive model for testing potential therapeutic agents. SCW PG-PS 10S (Beckton Dickinson Cat#210866) suspended in saline was vortexed for 30 seconds and sonicated for 3 min with a probe type sonicator prior to injection. […]
To induce arthritis, Female Lewis (LEW/N) rats, 5-6 weeks of age (80-100 g) were injected (i.p.) with SCW PG-PS as described above. […] Each ankle was measured 3 times and averaged, and treatment groups were randomized based on ankle thickness (Table 6). […]

[1] = biological target: T1, MMP9 mediated gelatinase activity (Rattus norvegicus, UniProt P50282); assay: In situ zymography of gelatinase activity in livers of SCW-induced rats; format: in vivo; details: for Intensity, Rat 1 / Intensity, Rat 2 / Intensity, Rat 3 / Intensity, Mean: liver
T1 construct: from tissue; host or cells: liver sections of female Lewis rats
T1 sequence (P50282 108-708): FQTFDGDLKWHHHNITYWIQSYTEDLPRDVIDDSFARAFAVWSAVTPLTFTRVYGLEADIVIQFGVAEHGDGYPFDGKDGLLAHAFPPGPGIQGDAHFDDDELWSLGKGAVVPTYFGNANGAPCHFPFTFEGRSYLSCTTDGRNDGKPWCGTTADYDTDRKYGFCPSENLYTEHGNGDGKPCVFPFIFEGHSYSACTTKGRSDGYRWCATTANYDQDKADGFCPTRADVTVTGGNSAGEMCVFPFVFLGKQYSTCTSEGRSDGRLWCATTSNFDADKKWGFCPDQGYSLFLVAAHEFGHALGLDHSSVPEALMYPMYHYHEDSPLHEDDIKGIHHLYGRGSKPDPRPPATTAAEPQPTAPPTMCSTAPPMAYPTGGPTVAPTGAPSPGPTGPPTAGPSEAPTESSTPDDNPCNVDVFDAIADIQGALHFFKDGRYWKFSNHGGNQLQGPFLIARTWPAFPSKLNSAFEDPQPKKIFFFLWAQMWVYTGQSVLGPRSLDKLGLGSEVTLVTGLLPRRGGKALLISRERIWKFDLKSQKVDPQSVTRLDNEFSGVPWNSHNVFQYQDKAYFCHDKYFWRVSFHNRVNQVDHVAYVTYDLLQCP
Description: In situ zymography provides an alternative approach to assess active MMP9 in tissues (Frederiks). Tissue sections are overlain with fluorescene-conjugated gelatin wherein the conjugation is sufficiently dense to cause the fluorescene to be dye-quenched (DQ). Proteolytic degradation of the DQ-gelatin releases the fluorescene from the quenching effect giving rise to bright green fluorescence at the site of degradation. Because in situ zymography requires the use of frozen sections, calcified tissues are problematic. However, an additional feature of the SCW arthritis model is the development of hepatic granulomatous disease (J Immunol; 1986; 137:2199-2209), and MMP9 reportedly plays a role in macrophage recruitment in the granulomas response to mycobacteria (Infect Immun; 2006; 74:6135-6144). Consequently, granulomatous livers from SCW-treated rats were assessed for active MMP9 by in situ zymography.
As described above, Female Lewis (LEW/N) rats, 5-6 weeks of age (80-100 g) were injected (i.p.) with saline or SCW PG-PS. On day 28, when the granulomatous response was well established, animals were sacrificed and livers were frozen in OCT cryo-sectioning medium and […] sections were cut on a Cryome HM 500 M cryotome and mounted on glass microscope slides. Sections were air dried briefly. MMP9 was confirmed as the source of the gelatinase activity in the liver by treating liver sections with monoclonal antibodies directed against the active site of the two major gelatinases MMP9 and MMP2. Liver sections overlain with 50 μL of 100 μg/mL neutralizing mouse monoclonal antibodies directed against MMP9 (Calbiochem, clone 6-6B), or MMP2 (Millipore, clone CA-4001), or with PBS for 1 hr at room temperature. Tissues were rinsed once with PBS, blotted, and briefly air dried and then overlain with DQ-gelatin (Invitrogen) dissolved to 1 mg/mL in deionized water and then diluted 1:10 in 1% wt/vol low gelling point agarose type VII (Sigma) in PBS. The sections were covered with coverslips, incubated in the dark at room temperature for 20 min, and imaged on an Olympus IX80 inverted microscope fitted with fluorescence optics, using SlideBook™ imaging software (Intelligent Imaging Innovations, Inc., Philadelphia, Pa.; version 5.0). Fluorescence intensity was determined (Table 8). When compared to a saline-treated rat, gelatinase activity was abundantly expressed in granulomatous liver sections obtained from a rat with SCW arthritis.
Next, liver in situ zymography was used to assess the relative presence of active MMP9 in rats dosed with vehicle vs. Compound-α. Female Lewis (LEW/N) rats, 5-6 weeks of age (80-100 g) were injected (i.p.) with saline or SCW PG-PS. Commencing on day 25, randomized groups of rats (n=3 rats/group) received vehicle or 20 or 50 mg/kg Compound-α BID by oral gavage. Vehicle consisted of an aqueous mixture containing 2% (v:v) N-methylpyrrolidone, 5% (v:v) glycerine, and 20% (w:v) captisol. Treatment continued daily through the morning of day 28. Four hrs after the AM dose on day 28, rats were sacrificed and livers assessed for active MMP9 by in situ zymography (Table 9). Gelatinase activity was increased markedly in SCW-induced rats, but activity was reduced by approximately 80% in animals treated with 50 mg/kg Compound-α.

Cc1nc(C)c(-c2csc(Nc3cc(S(N)(=O)=O)ccc3OC(C)C)n2)s1 [Compound-α, 3-(2′,4′-Dimethyl-[4,5′]bithiazolyl-2-ylamino)-4-isopropoxy-benzenesulfonamide•HBr]
Effect on ankle thickness measurements (SCW-induced arthritis; Day 18-26): dose-dependent decrease in ankle thickness measurements | Effect on clinical score measurements (SCW-induced arthritis; significant effects emerging at 20 mg/kg): dose dependent decrease in clinical score measurements | Reduction of liver gelatinase activity ([1]; 50 mg/kg BID Day 25-28): approximately 80% | Intensity, Rat 1 ([1]; 20 mg/kg BID Day 25-28): 43.0 RLU × 10^6 | Intensity, Rat 2 ([1]; 20 mg/kg BID Day 25-28): 69.0 RLU × 10^6 | Intensity, Rat 3 ([1]; 20 mg/kg BID Day 25-28): 53.7 RLU × 10^6 | Intensity, Mean ([1]; 20 mg/kg BID Day 25-28, n=3): 55.2 RLU × 10^6 | Intensity, Rat 1 ([1]; 50 mg/kg BID Day 25-28): 3.2 RLU × 10^6 | Intensity, Rat 2 ([1]; 50 mg/kg BID Day 25-28): 25.6 RLU × 10^6 | Intensity, Rat 3 ([1]; 50 mg/kg BID Day 25-28): 4.5 RLU × 10^6 | Intensity, Mean ([1]; 50 mg/kg BID Day 25-28, n=3): 11.1 RLU × 10^6
